Test: Pharmacokinetic evaluation of prodrugs in rats (plasma olanzapine and prodrug after intramuscular injection)
Format: in vivo, Male Sprague-Dawley rats
Conditions: ([Prodrug AUClast/MWprodrug]/[OLZ AUCINF/MWOLZ])*100, IM, dose 3 mg
Method: Male Sprague-Dawley rats (Charles River Laboratories, Wilmington, Mass.) 25 male Sprague-Dawley rats are obtained. Approximately 24 rats are used in each study. Rats are approximately 325-350 g at time of arrival, and are housed 2 per cage with ad libitum chow and water. Environmental conditions in the housing room are 64-76° F., 30% to 70% relative humidity, and 12:12-h light:dark cycle. All experiments are approved by the Institutional Animal Care and Use Committee.
Prodrug compounds (Compound 56, Compound 111, and Compound 112) of the invention and corresponding parent drugs of the prodrugs are tested.
Rats are dosed IM by means of a 25 gauge, ⅝ in. needle with 1 cc syringe. 0.3mL suspension is withdrawn from the vial containing the test compound. The rat is injected in the muscles of the hind limb after anesthesia with isoflourane. Blood samples are collected via a lateral tail vein after brief anesthesia with Isoflurane. A 27½ G needle and lcc syringe without an anticoagulant is used for the blood collection. Approximately 250 μL of whole blood is collected at each sampling time point of 1 hour, 6 hours, 24 hours and 2, 3, 6, 7, 10, 14 days after administration. Once collected, whole blood is immediately transferred to tubes containing an esterase inhibitor and anti-coagulant, inverted 10-15 times and immediately placed on ice. The tubes are centrifuged for 2 minutes at >14,000 g's (11500 RPMs using Eppendorf Centrifuge at 2-6° C. to separate plasma. Plasma samples are transferred to labeled plain tubes and stored frozen at <−70° C. The study design is shown in Table 5 and the PK results are given in Table 6.
The Olanzapine and prodrug concentrations in plasma samples were analyzed by liquid chromatography-tandem mass spectroscopy using appropriate parameters for each compound.
Half life, maximal concentration, and AUC are calculated using WinNonlin software, version 5.2 (Pharsight, St. Louis, Mo.). (FIGS. 1-4).

| SMILES | Relative exposure of prodrug |
| --- | --- |
| CCCCCCCCCCCCCCCC(=O)OCOC(=O)N1C(N2CCN(C)CC2)=c2cc(C)sc2=Nc2ccccc21 [Compound 56, (palmitoyloxy)methyl 2-methyl-4-(4-methylpiperazin-1-yl)-5H-benzo[b]thieno[2,3-e][1,4]diazepine-5-carboxylate] | Not detected |
| CCCCCCCCCCCCCCCCCC(=O)OCOC(=O)N1C(N2CCN(C)CC2)=c2cc(C)sc2=Nc2ccccc21 [Compound 111, (stearoyloxy)methyl 2-methyl-4-(4-methylpiperazin-1-yl)-5H-benzo[b]thieno[2,3-e][1,4]diazepine-5-carboxylate] | <3% |
| CCCCCCCCCCCCCCCCCCCC(=O)OCOC(=O)N1C(N2CCN(C)CC2)=c2cc(C)sc2=Nc2ccccc21 [Compound 112, (icosanoyloxy)methyl 2-methyl-4-(4-methylpiperazin-1-yl)-5H-benzo[b]thieno[2,3-e][1,4]diazepine-5-carboxylate] | 12% |

Reference: patent US11225490B2, “Prodrugs of secondary amine compounds” (Alkermes Pharma Ireland Limited, priority 2011, dated 2022)
